ChEMBL document CHEMBL4806963, “Antagonistic peptides for frizzled-1 and frizzled-2” (2013)
The source made the active and inactive calls. The rule behind the calls is not given here. Where a SMILES comes first, the peptide text is derived from it.

Tests used:
[1] = tested on: Mus musculus; experiment: Cardioprotective activity against myocardial infarction Swiss mouse model assessed as reduction in collagen level in infarct area at 6 ug/kg/day, sc via osmotic pumps for 5 weeks by immunohistochemical staining analysis; type: functional, organism-based; settings: dose 6.0 µg/kg/day
[2] = organism: Rattus norvegicus; experiment: Selectivity index, ratio of IC50 for Wnt3a-stimulated rat frizzled-1 expressed in human HEK293superTOPFlash cells to IC50 for Wnt3a-stimulated rat frizzled-2 expressed in human HEK293superTOPFlash cells; type: cell-based
[3] = biological target: Frizzled-2 (Homo sapiens) (UniProt Q14332); experiment: Antagonist activity at Wnt3a-stimulaed frizzled-2 (unknown origin) expressed in human HEK293superTOP flash cells at 1 nM incubated for 24 hrs by luciferase reporter gene assay (reference value: 0%); type: functional, cell-based; settings: HEK293, filed as antagonist
[4] = biological target: Frizzled-1 (Homo sapiens) (UniProt Q9UP38); experiment: Antagonist activity at Wnt3a-stimulaed frizzled-1 (unknown origin) expressed in human HEK293superTOP flash cells at 1 nM incubated for 24 hrs by luciferase reporter gene assay (reference value: 0%); type: functional, cell-based; settings: HEK293, filed as antagonist
[5] = biological target: Frizzled-2 (Homo sapiens) (UniProt Q14332); experiment: Antagonist activity at frizzled-2 (unknown origin) expressed in rat C-FIT cells assessed as inhibition of Wnt3a-stimulated cell differentiation changes by measuring alpha-smooth muscle actin gene expression at 10 nM by quantitative RT-PCR analysis; type: functional, cell-based; settings: filed as antagonist
[6] = biological target: Frizzled-2 (Homo sapiens) (UniProt Q14332); experiment: Antagonist activity at Wnt3a-stimulaed human frizzled-2 expressed in human HEK293superTOP flash cells incubated for 24 hrs by luciferase reporter gene assay; type: functional, cell-based; settings: HEK293, filed as antagonist
[7] = biological target: Frizzled-2 (Homo sapiens) (UniProt Q14332); experiment: Antagonist activity at frizzled-2 (unknown origin) expressed in human HEK293superTOP flash cells incubated for 24 hrs by luciferase reporter gene assay; type: functional, cell-based; settings: HEK293
[8] = biological target: Frizzled-1 (Rattus norvegicus) (UniProt Q08463); experiment: Antagonist activity at rat frizzled-1 expressed in rat C-FIT cells assessed as inhibition of Wnt5a-stimulated blockade of migration at 10 nM incubated for 48 hrs and measured for 24 hrs following the scratch by scratch wound healing assay; type: cell-based; settings: filed as antagonist, time 72.0 hrs
[9] = biological target: T1, Frizzled-4 (Homo sapiens) (UniProt Q9ULV1); experiment: Antagonist activity at Wnt3a-stimulaed frizzled-4 (unknown origin) expressed in human HEK293superTOP flash cells incubated for 24 hrs by luciferase reporter gene assay; type: functional, cell-based; settings: HEK293
T1 sequence (whole entry): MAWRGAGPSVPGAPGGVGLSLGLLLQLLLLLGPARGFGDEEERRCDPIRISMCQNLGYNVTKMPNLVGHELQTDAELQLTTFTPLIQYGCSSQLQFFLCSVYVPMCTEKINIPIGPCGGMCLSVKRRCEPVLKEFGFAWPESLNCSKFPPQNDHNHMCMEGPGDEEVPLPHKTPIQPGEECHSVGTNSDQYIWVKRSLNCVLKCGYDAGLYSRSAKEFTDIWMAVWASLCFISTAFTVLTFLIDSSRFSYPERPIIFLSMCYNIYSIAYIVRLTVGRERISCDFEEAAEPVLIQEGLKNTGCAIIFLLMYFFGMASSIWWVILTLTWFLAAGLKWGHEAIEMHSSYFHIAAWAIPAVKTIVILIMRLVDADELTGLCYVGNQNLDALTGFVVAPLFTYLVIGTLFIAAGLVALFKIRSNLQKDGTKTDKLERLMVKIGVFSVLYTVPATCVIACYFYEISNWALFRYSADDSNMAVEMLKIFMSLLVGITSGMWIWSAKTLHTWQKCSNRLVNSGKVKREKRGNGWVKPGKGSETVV

[10] = biological target: Frizzled-2 (Rattus norvegicus) (UniProt Q08464); experiment: Agonist activity at rat frizzled-2 expressed in CHO cells by luciferase reporter gene assay; type: cell-based
[11] = tested on: Mus musculus; experiment: Cardioprotective activity against myocardial infarction Swiss mouse model assessed as reduction in infarction expansion in heart at 6 ug/kg/day, sc via osmotic pumps for 5 weeks by macroscopic analysis; type: functional, organism-based; settings: dose 6.0 µg/kg/day
[12] = biological target: Frizzled-2 (Mus musculus) (UniProt Q9JIP6); experiment: Antagonist activity at Wnt3a-stimulaed mouse frizzled-2 expressed in human HEK293superTOP flash cells incubated for 24 hrs by luciferase reporter gene assay; type: cell-based; settings: HEK293, filed as antagonist
Chain of Frizzled-2 (Mus musculus) (Q9JIP6 whole entry, looked up): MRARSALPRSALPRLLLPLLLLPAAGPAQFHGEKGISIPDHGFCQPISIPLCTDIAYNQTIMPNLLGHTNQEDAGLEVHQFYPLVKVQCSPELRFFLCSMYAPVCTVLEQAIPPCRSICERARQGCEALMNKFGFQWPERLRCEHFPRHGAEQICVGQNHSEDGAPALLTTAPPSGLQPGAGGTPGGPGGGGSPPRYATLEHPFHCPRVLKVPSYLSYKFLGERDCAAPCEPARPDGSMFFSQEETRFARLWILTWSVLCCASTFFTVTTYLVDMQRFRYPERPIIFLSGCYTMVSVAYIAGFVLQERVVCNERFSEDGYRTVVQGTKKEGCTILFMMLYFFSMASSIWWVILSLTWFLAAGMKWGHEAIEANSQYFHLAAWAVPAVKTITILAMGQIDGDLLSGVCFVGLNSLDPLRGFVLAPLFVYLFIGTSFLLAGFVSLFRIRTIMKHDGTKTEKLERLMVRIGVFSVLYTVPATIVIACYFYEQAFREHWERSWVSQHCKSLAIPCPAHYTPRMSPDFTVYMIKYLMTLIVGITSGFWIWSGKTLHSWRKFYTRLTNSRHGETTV

Chain of Frizzled-2 (Homo sapiens) (Q14332 24-565 limits assumed): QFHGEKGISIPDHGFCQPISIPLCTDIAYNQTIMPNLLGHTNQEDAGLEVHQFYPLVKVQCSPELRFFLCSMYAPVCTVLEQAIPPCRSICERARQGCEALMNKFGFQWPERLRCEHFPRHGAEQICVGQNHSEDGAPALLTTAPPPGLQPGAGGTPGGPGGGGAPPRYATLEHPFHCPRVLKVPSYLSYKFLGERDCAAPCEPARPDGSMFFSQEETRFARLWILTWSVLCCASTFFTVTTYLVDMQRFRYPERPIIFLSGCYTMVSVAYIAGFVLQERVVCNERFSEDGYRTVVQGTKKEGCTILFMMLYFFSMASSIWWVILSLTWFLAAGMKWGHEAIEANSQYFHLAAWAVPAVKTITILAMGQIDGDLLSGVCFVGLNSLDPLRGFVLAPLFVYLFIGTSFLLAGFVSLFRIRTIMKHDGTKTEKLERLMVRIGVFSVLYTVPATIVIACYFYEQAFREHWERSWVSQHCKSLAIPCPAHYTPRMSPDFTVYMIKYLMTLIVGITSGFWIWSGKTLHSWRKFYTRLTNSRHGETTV
Chain of Frizzled-1 (Rattus norvegicus) (Q08463 whole entry): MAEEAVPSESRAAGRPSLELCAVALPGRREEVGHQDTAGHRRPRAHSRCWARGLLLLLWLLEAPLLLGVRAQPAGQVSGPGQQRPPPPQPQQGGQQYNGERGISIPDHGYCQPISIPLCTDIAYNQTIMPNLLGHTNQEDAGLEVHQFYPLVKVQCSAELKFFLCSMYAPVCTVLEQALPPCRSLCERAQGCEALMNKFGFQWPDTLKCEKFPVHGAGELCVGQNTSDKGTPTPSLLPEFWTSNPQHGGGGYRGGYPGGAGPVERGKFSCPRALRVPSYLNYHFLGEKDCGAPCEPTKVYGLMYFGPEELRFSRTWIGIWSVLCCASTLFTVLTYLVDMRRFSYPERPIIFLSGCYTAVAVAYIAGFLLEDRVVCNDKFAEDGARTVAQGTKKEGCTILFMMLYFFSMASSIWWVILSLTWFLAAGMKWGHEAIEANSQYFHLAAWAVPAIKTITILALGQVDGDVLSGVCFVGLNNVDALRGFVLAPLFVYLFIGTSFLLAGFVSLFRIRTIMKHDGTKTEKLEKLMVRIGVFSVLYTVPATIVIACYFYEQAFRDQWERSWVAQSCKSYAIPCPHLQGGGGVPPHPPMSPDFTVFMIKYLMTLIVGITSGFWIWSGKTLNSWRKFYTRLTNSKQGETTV
Chain of Frizzled-2 (Rattus norvegicus) (Q08464 29-570 limits assumed): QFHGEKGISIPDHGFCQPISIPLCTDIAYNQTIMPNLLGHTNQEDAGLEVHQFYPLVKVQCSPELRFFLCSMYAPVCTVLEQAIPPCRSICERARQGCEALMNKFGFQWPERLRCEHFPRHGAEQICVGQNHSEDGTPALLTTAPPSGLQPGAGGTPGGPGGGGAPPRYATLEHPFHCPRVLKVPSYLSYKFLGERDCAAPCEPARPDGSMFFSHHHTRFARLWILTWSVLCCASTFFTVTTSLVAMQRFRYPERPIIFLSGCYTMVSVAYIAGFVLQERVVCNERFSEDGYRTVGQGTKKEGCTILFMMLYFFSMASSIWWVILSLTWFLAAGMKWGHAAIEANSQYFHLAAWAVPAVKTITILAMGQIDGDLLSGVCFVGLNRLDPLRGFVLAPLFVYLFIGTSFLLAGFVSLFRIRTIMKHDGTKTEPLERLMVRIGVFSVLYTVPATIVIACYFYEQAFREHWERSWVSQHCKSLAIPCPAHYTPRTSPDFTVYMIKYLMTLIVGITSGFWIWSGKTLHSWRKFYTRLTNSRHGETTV
Chain of Frizzled-1 (Homo sapiens) (Q9UP38 70-647 limits assumed): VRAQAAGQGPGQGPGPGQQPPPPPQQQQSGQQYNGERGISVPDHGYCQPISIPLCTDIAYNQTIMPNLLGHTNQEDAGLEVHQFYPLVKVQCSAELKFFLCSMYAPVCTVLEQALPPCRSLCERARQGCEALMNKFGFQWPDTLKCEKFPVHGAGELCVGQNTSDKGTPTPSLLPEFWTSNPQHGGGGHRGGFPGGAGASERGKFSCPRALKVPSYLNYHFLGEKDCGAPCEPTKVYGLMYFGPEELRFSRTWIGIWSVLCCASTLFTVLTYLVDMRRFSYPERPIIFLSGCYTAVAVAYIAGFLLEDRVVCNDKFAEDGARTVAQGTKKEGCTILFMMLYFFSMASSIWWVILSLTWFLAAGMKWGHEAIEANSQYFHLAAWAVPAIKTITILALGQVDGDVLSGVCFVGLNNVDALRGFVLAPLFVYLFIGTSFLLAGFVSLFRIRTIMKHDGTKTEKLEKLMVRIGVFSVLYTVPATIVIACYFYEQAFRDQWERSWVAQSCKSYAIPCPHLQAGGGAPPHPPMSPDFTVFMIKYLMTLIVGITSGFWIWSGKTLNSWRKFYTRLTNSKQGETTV

- inhibition [3]: 61.2%
- inhibition [4]: 18%
- inhibition [5]: 100%
- inhibition [6]: Active
- inhibition [7]: inactive
- inhibition [8]: 100%
- inhibition [9]: inactive
- Activity [10]: inactive
- inhibition [12]: Active
Compound: CSCC[C@H](NC(=O)CNC(=O)[C@H](CCC(=O)O)NC(=O)[C@H](CO)NC(=O)[C@@H](NC(=O)[C@H](CCCCN)NC(=O)[C@H](CC(N)=O)NC(=O)[C@H](CS)NC(C)=O)[C@@H](C)O)C(=O)N[C@@H](CC(=O)O)C(=O)NCC(=O)N[C@@H](CS)C(=O)N[C@@H](CCC(=O)O)C(=O)N[C@@H](CC(C)C)C(N)=O (Ac-CNKTSEGMDGCEL-NH2)
- Activity [1]: Active
- Ratio IC50 [2]: 100
- Activity [11]: Active
